The record followed here is the NIST ThermoML archive (doi:10.1016/j.jct.2009.12.004).

Where “and” joins values, the source holds several entries; their conditions need not be identical. Identical values can stand only once. Numbers after ± are expanded uncertainties.

Data set [1] is described as follows: activity coefficient (dimensionless); of the first substance listed, at infinite dilution; xn = mol fraction of the nth substance listed. The conditions noted are these: Liquid, Chromatography, x1 = 0.
The conditions of data set [2]: 298.15 K; 101.33 kPa; Liquid; Vibrating tube method.

As for `C=CCCCCCCCC` [1-decene] + CCCCCCCC[n+]1ccn(C)c1.F[P-](F)(F)(F)(F)F, the activity coefficient in data set [1] (313.15 K) was 16.3 and 16.7; in data set [1] (323.15 K) it was 16.3 and 16.5; in data set [1] (333.15 K), 16.3 and 16.4.

In the case of `C=CCCCCC` [1-heptene] + CCCCCCCC[n+]1ccn(C)c1.F[P-](F)(F)(F)(F)F, the activity coefficient in data set [1] (313.15 K) was 8.2 ± 0.7; in data set [1] (323.15 K) it was 8.1 and 8.2; in data set [1] (333.15 K), 8 and 8.1.

With `C#CCCCCC` [1-heptyne] + CCCCCCCC[n+]1ccn(C)c1.F[P-](F)(F)(F)(F)F, the activity coefficient in data set [1] (313.15 K) was 2.81 and 2.93; in data set [1] (323.15 K), 2.98 and 2.87; in data set [1] (333.15 K), 2.93 and 3.04.

For the compound `C#CCCCC` [1-hexyne] + CCCCCCCC[n+]1ccn(C)c1.F[P-](F)(F)(F)(F)F, the activity coefficient was 2.24 and 2.33 in data set [1] (313.15 K); 2.38 and 2.3 in data set [1] (323.15 K); 2.34 and 2.43 in data set [1] (333.15 K).

Consider `C=CCCCCCCC` [1-nonene] + CCCCCCCC[n+]1ccn(C)c1.F[P-](F)(F)(F)(F)F, for which the activity coefficient is 14.2 and 13.5 in data set [1] (313.15 K); 13.3 and 13.9 in data set [1] (323.15 K); 13.5 and 13.3 in data set [1] (333.15 K).

On to `CCCCCCCC[n+]1ccn(C)c1.F[P-](F)(F)(F)(F)F` [1-octyl-3-methylimidazolium hexafluorophosphate], for which the mass density (usually the mass of a sample divided by its volume) in data set [2] amounted to 1238.51 ± 10 kg/m3.

With `C#CCCCCCC` [1-octyne] + CCCCCCCC[n+]1ccn(C)c1.F[P-](F)(F)(F)(F)F, the activity coefficient is 3.77 and 3.9 in data set [1] (313.15 K); 3.94 and 3.87 in data set [1] (323.15 K); 3.94 and 4.03 in data set [1] (333.15 K).

Take `C#CCCC` [1-pentyne] + CCCCCCCC[n+]1ccn(C)c1.F[P-](F)(F)(F)(F)F: the activity coefficient in data set [1] (313.15 K) was 1.7 and 1.72; in data set [1] (323.15 K), 1.79 and 1.75; in data set [1] (333.15 K), 1.78 and 1.84.

As for `c1ccccc1` [benzene] + CCCCCCCC[n+]1ccn(C)c1.F[P-](F)(F)(F)(F)F, the activity coefficient in data set [1] (313.15 K) was 0.96 and 0.97; in data set [1] (323.15 K), 0.99 ± 0.08; in data set [1] (333.15 K) it was 1 and 1.03.

Take `C1CCCCCC1` [cycloheptane] + CCCCCCCC[n+]1ccn(C)c1.F[P-](F)(F)(F)(F)F: the activity coefficient is 8.2 and 8 in data set [1] (313.15 K); 7.74 and 7.97 in data set [1] (323.15 K); 7.63 and 7.75 in data set [1] (333.15 K).

`C1CCCCC1` [cyclohexane] + CCCCCCCC[n+]1ccn(C)c1.F[P-](F)(F)(F)(F)F: the activity coefficient in data set [1] (313.15 K) was 6.7 and 6.82; in data set [1] (323.15 K), 6.61 and 6.56; in data set [1] (333.15 K), 6.29 and 6.3.

Turning to `C1CCCCCCC1` [cyclooctane] + CCCCCCCC[n+]1ccn(C)c1.F[P-](F)(F)(F)(F)F, the activity coefficient in data set [1] (313.15 K) is 10.2 and 9.9; in data set [1] (323.15 K), 9.5 and 9.9; in data set [1] (333.15 K) it was 9.4 ± 0.8.

On to `C1CCCC1` [cyclopentane] + CCCCCCCC[n+]1ccn(C)c1.F[P-](F)(F)(F)(F)F, for which the activity coefficient in data set [1] (313.15 K) was 5.02 and 5.06; in data set [1] (323.15 K) it was 4.95 and 4.92; in data set [1] (333.15 K) it was 4.77 and 4.79.

On to `CCCCCCCCCC` [decane] + CCCCCCCC[n+]1ccn(C)c1.F[P-](F)(F)(F)(F)F, for which the activity coefficient in data set [1] (313.15 K) is 31.8 and 31.7; in data set [1] (323.15 K) it was 30.8 and 30.3; in data set [1] (333.15 K), 28.2 and 29.

As to `CCO` [ethanol] + CCCCCCCC[n+]1ccn(C)c1.F[P-](F)(F)(F)(F)F, the activity coefficient was 2.22 and 2.32 in data set [1] (313.15 K); 2.05 and 2 in data set [1] (323.15 K); 1.79 and 1.82 in data set [1] (333.15 K).

As for `CCc1ccccc1` [ethylbenzene] + CCCCCCCC[n+]1ccn(C)c1.F[P-](F)(F)(F)(F)F, the activity coefficient is 1.95 ± 0.17 in data set [1] (313.15 K); 1.98 ± 0.17 in data set [1] (323.15 K); 1.99 and 2.02 in data set [1] (333.15 K).

For the compound `CCCCCCC` [heptane] + CCCCCCCC[n+]1ccn(C)c1.F[P-](F)(F)(F)(F)F, the activity coefficient in data set [1] (313.15 K) was 14.1 and 14.3; in data set [1] (323.15 K) it was 13.6 and 13.8; in data set [1] (333.15 K), 13.2 ± 1.1.

`C=CCCCC` [hex-1-ene] + CCCCCCCC[n+]1ccn(C)c1.F[P-](F)(F)(F)(F)F: the activity coefficient in data set [1] (313.15 K) was 6.2 and 6.5; in data set [1] (323.15 K), 6.29 and 6.15; in data set [1] (333.15 K), 6.1 and 6.15.

Consider `CCCCCC` [hexane] + CCCCCCCC[n+]1ccn(C)c1.F[P-](F)(F)(F)(F)F, for which the activity coefficient in data set [1] (313.15 K) was 10.8 and 11; in data set [1] (323.15 K) it was 10.7 and 10.6; in data set [1] (333.15 K) it was 10.2 and 10.4.

On to `CO` [methanol] + CCCCCCCC[n+]1ccn(C)c1.F[P-](F)(F)(F)(F)F, for which the activity coefficient is 1.77 and 1.85 in data set [1] (313.15 K); 1.65 and 1.61 in data set [1] (323.15 K); 1.46 and 1.5 in data set [1] (333.15 K).

Consider `C=CCCCCCC` [oct-1-ene] + CCCCCCCC[n+]1ccn(C)c1.F[P-](F)(F)(F)(F)F, for which the activity coefficient is 10.8 and 10.3 in data set [1] (313.15 K); 10.2 and 10.7 in data set [1] (323.15 K); 10.4 and 10.3 in data set [1] (333.15 K).

For `CCCCCCCC` [octane] + CCCCCCCC[n+]1ccn(C)c1.F[P-](F)(F)(F)(F)F, the activity coefficient was 18.3 and 17.6 in data set [1] (313.15 K); 17.1 and 17.9 in data set [1] (323.15 K); 17 and 16.9 in data set [1] (333.15 K).

In the case of `CCCCC` [pentane] + CCCCCCCC[n+]1ccn(C)c1.F[P-](F)(F)(F)(F)F, the activity coefficient in data set [1] (313.15 K) is 8.2 and 8.3; in data set [1] (323.15 K), 8.1 ± 0.7; in data set [1] (333.15 K) it was 7.8 and 8.

For the compound `Cc1ccccc1` [toluene] + CCCCCCCC[n+]1ccn(C)c1.F[P-](F)(F)(F)(F)F, the activity coefficient is 1.31 and 1.36 in data set [1] (313.15 K); 1.37 and 1.35 in data set [1] (323.15 K); 1.37 and 1.41 in data set [1] (333.15 K).

For `CCCCCCCCCCC` [undecane] + CCCCCCCC[n+]1ccn(C)c1.F[P-](F)(F)(F)(F)F, the activity coefficient was 42.1 and 41.3 in data set [1] (313.15 K); 40.1 and 39.6 in data set [1] (323.15 K); 36.5 and 37 in data set [1] (333.15 K).
